# Measured values reported in patent US8912144B2, “Method for treating stroke via administration of NEP1-40 and inosine” (Children's Medical Center Corporation, priority 2003, dated 2014).
# Tested on: corticospinal neurons (CSNs/CSMNs)
# Assay: Laser-capture microdissection and Illumina microarray gene expression in corticospinal neurons contralateral to stroke
# Format: in vivo, rat
# Conditions: for Signal Intensity, Treatment after Stroke: Inosine: CSMNs contralateral to SMA infarct
# Description: In a separate group of animals (n=20), layer V pyramidal cells of the sensorimotor cortex were retrogradely labeled by injecting Alexa-Fluor-488-conjugated cholera toxin B subunit (CTB; 300 U/μl in sterile saline) into the cervical spinal cord. For this, animals were anesthetized with a combination of ketamine and Domitor (medetomidine) and a laminectomy was performed at the cervical level of the spinal cord (C2-C4). CTB was stereotaxically delivered into four sites lateral to the corticospinal tract. Injections (1.3 μl) were spaced 1 mm apart on the rostro-caudal axis, and were made 0.5 mm to the left and right of the midline. After allowing two weeks for transport of the tracer, we performed either sham surgery with no treatment (n=6) or stroke surgery combined with saline (n=3) or inosine (n=4) treatment as described above. Seven days later, animals were decapitated under transient gas anesthesia, brains were removed and rinsed in cold RPMI medium, and a tissue block containing the sensorimotor cortex was dissected and placed in OCT Tissue Tek Medium (Sakura Finetek USA Inc., CA) on dry ice within five minutes of death. Ten μm sections were cut onto precleaned Gold Seal RITE-ON glass slides (Gold Seal Prod-ucts, Portsmouth, N.H.), placed on dry ice, and rapidly stored at −80° C.
# Slide-mounted sections were thawed and dehydrated in RNAse-free ethanol gradients and xylene. Retro-gradely labeled, fluorescent cortical pyramidal cells in the undamaged hemisphere were individually captured using the Arcturus VERITAS system. ≧500 cells were collected from each animal and stored in Arcturus extraction buffer at −80° C. Total RNA was extracted from cells using the Micro-to-Midi TotalRNA Purification System (Invitrogen, Carlsbad Calif.) and double-amplified using the TargetAmp 2-Round Aminoallyl-aRNA Amplification kit 1.0 (Epicentre, Madison, Wis.). Amplified RNA was checked for average fragment length using the Agilent RNA 6000 Nano LabChip kit (Agilent Technologies, Santa Clara, Calif.) and then biotinylated and hybridized (1 μg) on Illumina RatRef-12 Expression BeadChip arrays (Illumina, San Diego Calif.), querying the expression of >22,000 RefSeq-curated rat transcripts. Results were obtained from a total of 15 samples representing 6 untreated controls, 4 animals with stroke treated with saline and 5 animals with stroke treated with inosine. Slides were processed and scanned with Illumina BeadStation platform according to the manufacturer protocol.
# Raw data was analyzed using Bioconductor packages (www.bioconductor.org, (Gentleman et al., 2004)). Low level quality-control analysis was performed using inter-array Pearson correlation and clustering based on variance. Two arrays (1 saline and 1 inosine-treated) were outliers and were excluded from the analysis. Data was normalized using quantile normalization, and analysis of differential expression was performed using a linear model fitting (LIMMA package, (Smyth, 2005). Differentially expressed genes were classified according to gene ontology using Bioconductor packages and online tools (DAVID, http://david.abcc.ncifcrf.gov/). Pathway analysis was carried out using Ingenuity Pathway Analysis (Ingenuity Systems, www.ingenuity.com).
# [1] = ILMN_161110, similar to myo-inositol 1-phosphate synthase A1
structure (smiles),measurement,setting,value
OC[C@H]1O[C@@H](n2cnc3c(O)ncnc32)[C@H](O)[C@@H]1O [inosine],"Fold-Induction Stroke, ino vs. cntrl, Rpl31",ILMN_70426,0.90
same,"Signal Intensity, Rpl31","ILMN_70426, inosine after stroke",831
same,"Fold-Induction Stroke, ino vs. cntrl",[1],2.90
same,Signal Intensity Inosine,[1],3241
same,"Fold-Induction Stroke, ino vs. cntrl",Ifitm3 ILMN_48088,2.71
same,Signal Intensity Inosine,Ifitm3 ILMN_48088,2516
same,"Fold-Induction Stroke, ino vs. cntrl",Igfbp2 ILMN_54332,3.97
same,Signal Intensity Inosine,Igfbp2 ILMN_54332,3801
same,"Fold-Induction Stroke, ino vs. cntrl",Ing4 ILMN_54994,1.01
same,Signal Intensity Inosine,Ing4 ILMN_54994,1169
same,"Fold-Induction Stroke, ino vs. cntrl",Irf3 ILMN_51700,2.92
same,Signal Intensity Inosine,Irf3 ILMN_51700,12720
same,"Fold-Induction Stroke, ino vs. cntrl",LOC291847 ILMN_62527,1.32
same,Signal Intensity Inosine,LOC291847 ILMN_62527,558
same,"Fold-Induction Stroke, ino vs. cntrl",LOC294337 ILMN_68161,2.56
same,Signal Intensity Inosine,LOC294337 ILMN_68161,2622
same,"Fold-Induction Stroke, ino vs. cntrl",LOC295941 ILMN_58921,1.07
same,Signal Intensity Inosine,LOC295941 ILMN_58921,3970
same,"Fold-Induction Stroke, ino vs. cntrl",LOC300149 ILMN_48288,1.34
same,Signal Intensity Inosine,LOC300149 ILMN_48288,2789
same,"Fold-Induction Stroke, ino vs. cntrl",LOC301122 ILMN_62401,1.22
same,Signal Intensity Inosine,LOC301122 ILMN_62401,925
same,"Fold-Induction Stroke, ino vs. cntrl",LOC303702 ILMN_64738,1.72
same,Signal Intensity Inosine,LOC303702 ILMN_64738,899
same,"Fold-Induction Stroke, ino vs. cntrl",LOC303790 ILMN_56510,1.45
same,Signal Intensity Inosine,LOC303790 ILMN_56510,2300
same,"Fold-Induction Stroke, ino vs. cntrl",LOC304116 ILMN_63846,0.99
same,Signal Intensity Inosine,LOC304116 ILMN_63846,393
same,"Fold-Induction Stroke, ino vs. cntrl",LOC305076 ILMN_60367,1.56
same,Signal Intensity Inosine,LOC305076 ILMN_60367,824
same,"Fold-Induction Stroke, ino vs. cntrl",LOC305633 ILMN_51277,2.99
same,Signal Intensity Inosine,LOC305633 ILMN_51277,2047
same,"Fold-Induction Stroke, ino vs. cntrl",LOC317579 ILMN_58258,1.52
same,Signal Intensity Inosine,LOC317579 ILMN_58258,733
same,"Fold-Induction Stroke, ino vs. cntrl",LOC360627 ILMN_61895,2.62
same,Signal Intensity Inosine,LOC360627 ILMN_61895,1064
same,"Fold-Induction Stroke, ino vs. cntrl",LOC360644 ILMN_48641,3.68
same,Signal Intensity Inosine,LOC360644 ILMN_48641,602
same,"Fold-Induction Stroke, ino vs. cntrl",LOC361080 ILMN_61547,0.40
same,Signal Intensity Inosine,LOC361080 ILMN_61547,295
same,"Fold-Induction Stroke, ino vs. cntrl",LOC362015 ILMN_62932,1.37
same,Signal Intensity Inosine,LOC362015 ILMN_62932,1285
same,"Fold-Induction Stroke, ino vs. cntrl",LOC362304 ILMN_53204,1.34
same,Signal Intensity Inosine,LOC362304 ILMN_53204,5067
same,"Fold-Induction Stroke, ino vs. cntrl",LOC362857 ILMN_64100,0.43
same,Signal Intensity Inosine,LOC362857 ILMN_64100,1081
same,"Fold-Induction Stroke, ino vs. cntrl",LOC497739 ILMN_66205,1.65
same,Signal Intensity Inosine,LOC497739 ILMN_66205,4864
same,"Fold-Induction Stroke, ino vs. cntrl",LOC497841 ILMN_51249,11.52
same,Signal Intensity Inosine,LOC497841 ILMN_51249,2841
same,"Fold-Induction Stroke, ino vs. cntrl",LOC498185 ILMN_58236,2.76
same,Signal Intensity Inosine,LOC498185 ILMN_58236,804
same,"Fold-Induction Stroke, ino vs. cntrl",LOC498276 ILMN_65617,2.56
same,Signal Intensity Inosine,LOC498276 ILMN_65617,3014
same,"Fold-Induction Stroke, ino vs. cntrl",LOC498279 ILMN_65961,4.07
same,Signal Intensity Inosine,LOC498279 ILMN_65961,8892
same,"Fold-Induction Stroke, ino vs. cntrl",LOC498335 ILMN_53325,25.26
same,Signal Intensity Inosine,LOC498335 ILMN_53325,3310
same,"Fold-Induction Stroke, ino vs. cntrl",LOC498614 ILMN_54303,1.05
same,Signal Intensity Inosine,LOC498614 ILMN_54303,2373
same,"Fold-Induction Stroke, ino vs. cntrl",LOC498957 ILMN_67281,1.28
same,Signal Intensity Inosine,LOC498957 ILMN_67281,1081
same,"Fold-Induction Stroke, ino vs. cntrl",LOC499244 ILMN_49099,2.24
same,Signal Intensity Inosine,LOC499244 ILMN_49099,14824
same,"Fold-Induction Stroke, ino vs. cntrl",LOC500226 ILMN_54711,2.10
same,Signal Intensity Inosine,LOC500226 ILMN_54711,7922
same,"Fold-Induction Stroke, ino vs. cntrl",LOC500804 ILMN_61346,2.35
same,Signal Intensity Inosine,LOC500804 ILMN_61346,5507
same,"Fold-Induction Stroke, ino vs. cntrl",Lap3 ILMN_57870,1.01
same,Signal Intensity Inosine,Lap3 ILMN_57870,918
same,"Fold-Induction Stroke, ino vs. cntrl",Lcpl ILMN_58058,2.76
same,Signal Intensity Inosine,Lcpl ILMN_58058,1306
same,"Fold-Induction Stroke, ino vs. cntrl",Lgals3bp ILMN_60037,3.00
same,Signal Intensity Inosine,Lgals3bp ILMN_60037,629
same,"Fold-Induction Stroke, ino vs. cntrl",Man2b1 ILMN_65999,2.64
same,Signal Intensity Inosine,Man2b1 ILMN_65999,1676
same,"Fold-Induction Stroke, ino vs. cntrl",Map2k6 ILMN_53013,1.19
same,Signal Intensity Inosine,Map2k6 ILMN_53013,3981
same,"Fold-Induction Stroke, ino vs. cntrl",Mt1a ILMN_53575,3.68
same,Signal Intensity Inosine,Mt1a ILMN_53575,3267
same,"Fold-Induction Stroke, ino vs. cntrl",Nfkbia ILMN_49934,2.69
same,Signal Intensity Inosine,Nfkbia ILMN_49934,3250
same,"Fold-Induction Stroke, ino vs. cntrl",Oplah ILMN_65374,2.05
same,Signal Intensity Inosine,Oplah ILMN_65374,2440
same,"Fold-Induction Stroke, ino vs. cntrl",Pfc ILMN_56164,2.02
same,Signal Intensity Inosine,Pfc ILMN_56164,1375
same,"Fold-Induction Stroke, ino vs. cntrl",Pkn1 ILMN_63766,1.69
same,Signal Intensity Inosine,Pkn1 ILMN_63766,2365
same,"Fold-Induction Stroke, ino vs. cntrl",Plcd1 ILMN_50502,1.90
same,Signal Intensity Inosine,Plcd1 ILMN_50502,1514
same,"Fold-Induction Stroke, ino vs. cntrl",Plek ILMN_57609,2.99
same,Signal Intensity Inosine,Plek ILMN_57609,1937
same,"Fold-Induction Stroke, ino vs. cntrl",Pnck ILMN_66828,1.65
same,Signal Intensity Inosine,Pnck ILMN_66828,8946
same,"Fold-Induction Stroke, ino vs. cntrl",Polrmt ILMN_59207,1.52
same,Signal Intensity Inosine,Polrmt ILMN_59207,1219
same,"Fold-Induction Stroke, ino vs. cntrl",Ppp1r14b ILMN_59774,2.26
same,Signal Intensity Inosine,Ppp1r14b ILMN_59774,2071
same,"Fold-Induction Stroke, ino vs. cntrl",Ptpn6 ILMN_61314,3.52
same,Signal Intensity Inosine,Ptpn6 ILMN_61314,957
same,"Fold-Induction Stroke, ino vs. cntrl",Ptprr ILMN_55987,1.04
same,Signal Intensity Inosine,Ptprr ILMN_55987,676
same,"Fold-Induction Stroke, ino vs. cntrl",RGD1309326 ILMN_60781,1.43
same,Signal Intensity Inosine,RGD1309326 ILMN_60781,2333
same,"Fold-Induction Stroke, ino vs. cntrl",RT1-Da ILMN_59933,11.11
same,Signal Intensity Inosine,RT1-Da ILMN_59933,3072
same,"Fold-Induction Stroke, ino vs. cntrl",Rbl2 ILMN_59080,1.30
same,Signal Intensity Inosine,Rbl2 ILMN_59080,1060
same,"Fold-Induction Stroke, ino vs. cntrl",Rfx1 ILMN_50833,1.51
same,Signal Intensity Inosine,Rfx1 ILMN_50833,4995
same,"Fold-Induction Stroke, ino vs. cntrl",Rhoj ILMN_58882,2.67
same,Signal Intensity Inosine,Rhoj ILMN_58882,588
same,"Fold-Induction Stroke, ino vs. cntrl",Rhot2 ILMN_62537,1.68
same,Signal Intensity Inosine,Rhot2 ILMN_62537,1112
same,"Fold-Induction Stroke, ino vs. cntrl",Rnaset2 ILMN_55431,2.31
same,Signal Intensity Inosine,Rnaset2 ILMN_55431,7227
same,"Fold-Induction Stroke, ino vs. cntrl",Serpinb1a ILMN_57422,2.68
same,Signal Intensity Inosine,Serpinb1a ILMN_57422,589
same,"Fold-Induction Stroke, ino vs. cntrl",Serping1 ILMN_60046,3.19
same,Signal Intensity Inosine,Serping1 ILMN_60046,1251
same,"Fold-Induction Stroke, ino vs. cntrl",Sgpp1 ILMN_57304,0.44
same,Signal Intensity Inosine,Sgpp1 ILMN_57304,316
same,"Fold-Induction Stroke, ino vs. cntrl",Slc9a1 ILMN_53105,1.32
same,Signal Intensity Inosine,Slc9a1 ILMN_53105,2100
same,"Fold-Induction Stroke, ino vs. cntrl",Slc35b4 ILMN_68450,1.41
same,Signal Intensity Inosine,Slc35b4 ILMN_68450,430
same,"Fold-Induction Stroke, ino vs. cntrl",Smoc2 ILMN_60870,3.79
same,Signal Intensity Inosine,Smoc2 ILMN_60870,1123
same,"Fold-Induction Stroke, ino vs. cntrl",Soc ILMN_57817,1.36
same,Signal Intensity Inosine,Soc ILMN_57817,1341
same,"Fold-Induction Stroke, ino vs. cntrl",Srebf1 ILMN_51834,1.47
same,Signal Intensity Inosine,Srebf1 ILMN_51834,1069
same,"Fold-Induction Stroke, ino vs. cntrl",Tcirg1 ILMN_52949,2.81
same,Signal Intensity Inosine,Tcirg1 ILMN_52949,2173
same,"Fold-Induction Stroke, ino vs. cntrl",Timp1 ILMN_62559,3.57
same,Signal Intensity Inosine,Timp1 ILMN_62559,2293
same,"Fold-Induction Stroke, ino vs. cntrl",Tle2 ILMN_54011,3.03
same,Signal Intensity Inosine,Tle2 ILMN_54011,2295
same,"Fold-Induction Stroke, ino vs. cntrl",Tm6p1 ILMN_57902,1.99
same,Signal Intensity Inosine,Tm6p1 ILMN_57902,1532
same,"Fold-Induction Stroke, ino vs. cntrl",Trim39 ILMN_54591,1.35
same,Signal Intensity Inosine,Trim39 ILMN_54591,1351
same,"Fold-Induction Stroke, ino vs. cntrl",Unc93b ILMN_53114,2.10
same,Signal Intensity Inosine,Unc93b ILMN_53114,600
same,"Signal Intensity, Treatment after Stroke: Inosine",gene P2rxl1 (ILMN_68585),246
same,"Signal Intensity, Treatment after Stroke: Inosine",gene Tm7sf2 (ILMN_58100),419
